Data published in the supplement of paper PMC10307832.

What was measured:
Assay in all cases: relative viability (nuclei count vs DMSO), 5 days (fraction); higher = more cells survive
Linifanib + Palbociclib = compound: Cc1ccc(F)c(NC(=O)Nc2ccc(-c3cccc4[nH]nc(N)c34)cc2)c1 [Linifanib] + CC(=O)c1c(C)c2cnc(Nc3ccc(N4CCNCC4)cn3)nc2n(C2CCCC2)c1=O [Palbociclib] (partner 0.5 µM)
In short: (§1)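 Dosing by pin tool came one day after lung cancer cell lines were seeded in 1536-well plates, using either one drug or a fixed anchor-drug dose plus five library-drug doses (not always all listed) in √10 steps. After 5 days, nuclei were counted on 4× images. Relative viability is treated-well nuclei count divided by vehicle-well nuclei count, and values are medians of duplicate plates.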

Linifanib + Navitoclax = compound: Cc1ccc(F)c(NC(=O)Nc2ccc(-c3cccc4[nH]nc(N)c34)cc2)c1 [Linifanib] + CC1(C)CCC(c2ccc(Cl)cc2)=C(CN2CCN(c3ccc(C(=O)NS(=O)(=O)c4ccc(N[C@H](CCN5CCOCC5)CSc5ccccc5)c(S(=O)(=O)C(F)(F)F)c4)cc3)CC2)C1 [Navitoclax] (partner 0.5 µM)
In short: as §1

Linifanib + Foretinib = compound: Cc1ccc(F)c(NC(=O)Nc2ccc(-c3cccc4[nH]nc(N)c34)cc2)c1 [Linifanib] + COc1cc2c(Oc3ccc(NC(=O)C4(C(=O)Nc5ccc(F)cc5)CC4)cc3F)ccnc2cc1OCCCN1CCOCC1 [Foretinib] (partner 0.25 µM)
In short: as §1

Linifanib + Pictilisib = compound: Cc1ccc(F)c(NC(=O)Nc2ccc(-c3cccc4[nH]nc(N)c34)cc2)c1 [Linifanib] + CS(=O)(=O)N1CCN(Cc2cc3nc(-c4cccc5[nH]ncc45)nc(N4CCOCC4)c3s2)CC1 [Pictilisib] (partner 1 µM)
In short: as §1

Linifanib + Linsitinib = compound: Cc1ccc(F)c(NC(=O)Nc2ccc(-c3cccc4[nH]nc(N)c34)cc2)c1 [Linifanib] + C[C@]1(O)C[C@@H](c2nc(-c3ccc4ccc(-c5ccccc5)nc4c3)c3c(N)nccn32)C1 [Linsitinib] (partner 1 µM)
In short: as §1

Linifanib + Pemetrexed = compound: Cc1ccc(F)c(NC(=O)Nc2ccc(-c3cccc4[nH]nc(N)c34)cc2)c1 [Linifanib] + Nc1nc2[nH]cc(CCc3ccc(C(=O)N[C@@H](CCC(=O)O)C(=O)O)cc3)c2c(=O)[nH]1 [Pemetrexed] (partner 0.2 µM)
In short: as §1

| Cell Line | relative viability (Linifanib + Palbociclib; first compound 0.03162 µM) | relative viability (Linifanib + Palbociclib; first compound 0.1 µM) | relative viability (Linifanib + Palbociclib; first compound 0.3162 µM) | relative viability (Linifanib + Navitoclax; first compound 0.03162 µM) | relative viability (Linifanib + Navitoclax; first compound 0.1 µM) | relative viability (Linifanib + Navitoclax; first compound 0.3162 µM) | relative viability (Linifanib + Foretinib; first compound 0.03162 µM) | relative viability (Linifanib + Foretinib; first compound 0.1 µM) | relative viability (Linifanib + Foretinib; first compound 0.3162 µM) | relative viability (Linifanib + Pictilisib; first compound 0.03162 µM) | relative viability (Linifanib + Pictilisib; first compound 0.1 µM) | relative viability (Linifanib + Pictilisib; first compound 0.3162 µM) | relative viability (Linifanib + Linsitinib; first compound 0.03162 µM) | relative viability (Linifanib + Linsitinib; first compound 0.1 µM) | relative viability (Linifanib + Linsitinib; first compound 0.3162 µM) | relative viability (Linifanib + Pemetrexed; first compound 0.03162 µM) | relative viability (Linifanib + Pemetrexed; first compound 0.1 µM) | relative viability (Linifanib + Pemetrexed; first compound 0.3162 µM) |
| --- | --- | --- | --- | --- | --- | --- | --- | --- | --- | --- | --- | --- | --- | --- | --- | --- | --- | --- |
| NCI-H2228 | 0.803 | 0.85 | 0.818 | 0.994 | 1.01 | 0.8 | 1.08 | 0.889 | 0.81 | 0.415 | 0.64 | 0.386 | 0.648 | 0.705 | 0.5 | 0.325 | 0.355 | 0.319 |
| NCI-H2347 | 0.462 | 0.441 | 0.404 | 0.826 | 1.01 | 0.733 | 1.09 | 1.25 | 0.782 | 0.863 | 0.987 | 0.817 | 0.994 | 0.96 | 0.954 | 0.434 | 0.431 | 0.425 |
| NCI-H2405 | 0.56 | 0.532 | 0.513 | 0.889 | 0.88 | 0.754 | 1.06 | 1.04 | 1.07 | 0.499 | 0.606 | 0.477 | 0.886 | 0.98 | 0.852 | 1.06 | 1.11 | 1.04 |
| NCI-H3122 | 0.19 | 0.196 | 0.179 | 1.02 | 1.04 | 1.01 | 0.946 | 0.965 | 0.932 | 0.598 | 0.648 | 0.577 | 0.997 | 0.986 | 1.04 | 0.203 | 0.201 | 0.193 |
| PC-3 [JPC-3] | 0.615 | 0.537 | 0.487 | 0.878 | 0.826 | 0.77 | 1.05 | 0.973 | 0.993 | 0.743 | 0.786 | 0.687 | 0.971 | 0.903 | 1 | 1.03 | 1.05 | 0.94 |
| PC-14 | 0.444 | 0.584 | 0.463 | 0.975 | 0.91 | 0.947 | 0.976 | 0.951 | 0.914 | 0.617 | 0.823 | 0.682 | 1.01 | 1.07 | 0.922 | 0.145 | 0.137 | 0.129 |
| RERF-LC-KJ | 1.07 | 1.1 | 1.05 | 1.12 | 1.02 | 0.994 | 0.796 | 0.932 | 0.814 | 0.564 | 0.6 | 0.484 | 0.888 | 0.907 | 0.827 | 0.502 | 0.494 | 0.484 |
| SK-LU-1 | 0.359 | 0.449 | 0.366 | 0.783 | 0.893 | 0.791 | 0.805 | 0.816 | 0.811 | 0.529 | 0.602 | 0.542 | 0.932 | 1.02 | 0.981 | 0.794 | 1 | 0.966 |
| SK-MES-1 | 0.323 | 0.331 | 0.336 | 1.18 | 1.25 | 1.04 | 0.986 | 1 | 0.827 | 0.369 | 0.338 | 0.398 | 1.04 | 1.12 | 1.03 | 1 | 0.964 | 0.962 |
